# Data from the supplement of paper PMC10307832.
# Assays:
# Test in all cases: relative viability (nuclei count vs DMSO), 5 days (fraction); higher = more cells survive
# Axitinib = compound: CNC(=O)c1ccccc1Sc1ccc2c(/C=C/c3ccccn3)n[nH]c2c1 [Axitinib]
# Outline: (§1)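 Nuclei counted with MetaXpress define viability as the ratio of treated to vehicle wells, given as a median across plates. The lung cancer cell lines were in 1536-well plates, pinned with five √10-spaced library-drug doses and imaged at 4× after 5 days and Hoechst staining. Plates passed with control CV below 25% and at least one doubling.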
# Pifithrin_alpha = compound: CC1=CC=C(C=C1)C(=O)CN2C3=C(CCCC3)SC2=N [Pifithrin_alpha]
# Outline: as §1
# Bemcentinib = compound: Nc1nc(Nc2ccc3c(c2)CC[C@@H](N2CCCC2)CC3)nn1-c1cc2c(nn1)-c1ccccc1CCC2 [Bemcentinib]
# Outline: as §1
# [1] = compound: CC1=CC=C(C=C1)C(=O)CN2C3=C(CCCC3)SC2=N [Pifithrin_alpha] + COc1cc2c(Oc3ccc(NC(=O)C4(C(=O)Nc5ccc(F)cc5)CC4)cc3F)ccnc2cc1OCCCN1CCOCC1 [Foretinib] (partner 0.25 µM)
# Outline: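 Relative viability equals treated-well nuclei counts divided by vehicle-well nuclei counts. Counts came from 4× images of lung cancer cell lines grown in 1536-well plates for 5 days after pin-tool dosing on the day after seeding. Dosing used one drug alone or a fixed anchor-drug dose plus five library-drug doses (not always all listed) in √10 steps, and values are medians of duplicate plates.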
Cell Line,relative viability (Axitinib; 0.005 µM),relative viability (Axitinib; 0.01581 µM),relative viability (Axitinib; 0.05 µM),relative viability (Axitinib; 0.1581 µM),relative viability (Axitinib; 0.5 µM),relative viability (Pifithrin_alpha; 1 µM),relative viability (Pifithrin_alpha; 3.162 µM),relative viability (Pifithrin_alpha; 10 µM),relative viability (Pifithrin_alpha; 31.62 µM),relative viability (Pifithrin_alpha; 100 µM),relative viability (Bemcentinib; 0.04 µM),relative viability (Bemcentinib; 0.1265 µM),relative viability (Bemcentinib; 0.4 µM),relative viability (Bemcentinib; 1.265 µM),relative viability (Bemcentinib; 4 µM),relative viability ([1]; first compound 1 µM),relative viability ([1]; first compound 3.162 µM),relative viability ([1]; first compound 10 µM),relative viability ([1]; first compound 31.62 µM),relative viability ([1]; first compound 100 µM)
LXF-289,1.01,0.971,0.994,0.963,1.05,1.02,1.02,0.98,0.941,0.977,1.03,1.09,1.06,1.06,1.05,1.02,1.05,0.995,0.888,1.01
NCI-H596,1.04,0.956,1.03,1.06,0.947,1.12,0.886,0.958,0.973,0.996,0.883,1.03,0.924,0.908,1.07,0.924,0.737,0.823,0.735,0.958
NCI-H727,1.01,0.881,0.991,0.86,0.972,0.829,0.841,0.883,0.587,0.837,0.869,1.08,1.19,1.01,1.2,0.903,0.759,0.837,–,0.75
NCI-H1993,1.05,0.892,0.909,0.94,0.864,0.693,0.764,0.743,0.658,0.775,0.911,0.927,1.22,0.921,0.994,0.721,0.566,0.694,0.661,0.674
NCI-H1437,1.05,0.991,0.961,0.983,1.01,1.02,1.05,0.953,0.827,0.793,0.925,1.01,1.03,0.965,0.969,1.4,1.33,1.21,0.794,0.93
NCI-H2023,0.984,0.972,0.945,0.936,1.13,0.924,0.846,0.902,0.461,0.686,0.975,1.08,1.14,1.08,1.13,0.969,–,0.578,–,0.523
LK-2,0.976,0.746,0.816,0.823,0.822,0.975,1.18,1.12,–,1.25,0.969,1.26,1.25,1.06,1.01,1.18,1.64,1.48,–,1.62
HOP-62,1.01,0.965,1.03,1.01,1.03,0.952,1.1,1.06,0.791,1.12,1.01,1.15,0.999,1.02,1.04,1.17,1.16,1.18,1.03,1.19
